Test results as given in US5468758A, “Crystalline forms of endo-2,3-dihydro-N-(8-methyl)-8-azabicyclo[3.2.1]oct-3-yl)-2-oxo-1H-benz imidazole-1-carboxamides” (Boehringer Ingelheim Italia S.p.A., priority 1992, dated 1995).
Counter-ions that a name gives are not always drawn.

Experiments:
Type in all cases: physicochemical
[1] = Long-term real time stability tests in tablets and capsules
Source text: (§1) Drug stability in these final compositions may be measured in accelerated stability tests or in long term real time stability tests. In accelerated stability tests, the above pharmaceutical compositions are exposed at high temperatures at different degrees of relative humidity for a period of time. Such tests are considered to be indicative of the stability of the composition at normal conditions. In long term real time stability studies the final compositions are exposed to normal conditions of storage at ambient temperatures at different degrees of relative humidity.
Tablets and capsules are packaged in PVC/PVDC blister with aluminium foil

[2] = Water loss on desiccation under vacuum; settings: between room temperature and 60° C. under vacuum, most preferably 40° C., 0.1 mm Hg, 24 hours; in words
Protocol: Compounds 2a and 2b may be prepared by dissolving the compounds 1a and 1b, as free base, in a hot aqueous solvent, preferably a hot aqueous alkanol, by adding the required amount of gaseous hydrogen chloride, filtering the resulting solution and letting it cool to room temperature. In a preferred embodiment of the process according to the invention, compound 2a is prepared by using, as an hot aqueous alkanol, hot 85% aqueous ethanol. The crystals of compound 2a may be collected by vacuum filtration and are washed with a small amount of aqueous ethanol. In a preferred embodiment of the process according to the invention, compound 2b is prepared by using, as an hot aqueous alkanol, hot 95% aqueous isopropanol. The crystals of compound 2b may be collected by vacuum filtration and are washed with a small amount of aqueous isopropanol. […] Water content may be measured by usual techniques such as the Karl Fischer test. Alternatively, compounds 2a and 2b may be conveniently prepared by dissolving the anhydrous form of compounds 1a and 1b, as hydrochloride, in hot aqueous ethanol, preferably 85% ethanol (respectively in hot aqueous isopropanol, preferably 95% isopropanol) and allowing to cool the solution at room temperature; crystals of compound 2 a (respectively 2b), separated from the cooled solution, are collected by vacuum filtration and manipulated as previously described. […]

[3] = Milling studies (FRITSCH Pulverisette 14 Rotor Speed Mill)
Protocol: The milling process was performed by the FRITSCH Pulverisette 14 Rotor Speed Mill supplied with circular sieve stainless steel with trapezoidal 0.080 mm diameter openings. The samples were passed through the mill twice at 20.000 rpm motor speed. The sample is assayed for title and degradation products by TLC and HPLC, physical state by DSC, water content by TGA, particle size distribution by Mercury Instrusion Porosimetry. The mi 11ed compounds are formulated in capsules and tablets at very low dose level (0.5 mg) by direct mixing and direct compression manufacturing method, respectively.

[4] = Moisture sorption/desorption studies (hygrostat, storage at different temperatures and relative humidity); set-up: water content (Table VI): unit not given here; settings: for water content (Table VII): 11.2% RH, % on the weight of compound 1b
Protocol: The determination of the sorption isotherms was carried out in a hygrostat.
At suitable intervals, the sample was weighed by means of a sample balance. The atmosphere in the hygrostat and therefore around the sample of compound 1a (1b) and 2a (2b) was conditioned and kept by a saturated solutions of a suitable salt:
Na Cl saturated solution 75.3% RH/25° C. 74.8% RH/37° C.
KNO3 saturated solution 93.7% RH/25° C. 90.0% RH/37° C.
At the end of the experiment, after completing the hysteresis, that is the adsorption--desorption cycle of humidity, the compound was assayed for the title and degradation products by TLC and HPLC, the physical state by DSC and water content by TGA.

[5] = Accelerated stability tests in tablets and capsules
Source text: as §1
(*)according to H. Leven Berger Pharm. Act. Helv. 50 (1975) 88-91 it is
equivalent to 2 years storage at room temperature. Tablets and capsules
are packaged in PVC/PVDC blister with aluminium foil.
(*)according to "Guidelines for stability studies for Human Drugs and
Biologics" (1987) (USA/FDA) it is equivalent to 2 years at room
temperature. Tablets and capsules are packaged in PVC/PVDC blister with […]

CCn1c(=O)n(C(=O)N[C@H]2C[C@H]3CC[C@@H](C2)N3C)c2ccccc21 [Compound 2b, Endo-3-ethyl-2,3-dihydro-N-(8-methyl-8-azabicyclo-[3.2.1]oct-3-yl)-2-oxo-1H-benzimidazole-1-carboxamide, hydrochloride monohydrate]
stability in tablets and capsules [1]: better stability | loss of water content on desiccation [2]: without any appreciable loss of water content | particle size reduction (milling efficiency) ([3]; Mercury Porosimetry Analysis, in words): same rank order | humidity content ([3]; after milling, hydrochloride monohydrate): 4.8% | stability in condition of storage [4]: stable | water content in conditions of extreme dryness ([4]; 11 RH, 37° C., in words): not affected | water content (Table VII) ([4]; 37° C., 1 h): 5.00% | water content (Table VII) ([4]; 37° C., 2 h): 4.85% | water content (Table VII) ([4]; 37° C., 4 h): 4.80% | water content (Table VII) ([4]; 37° C., 6 h): 4.70% | water content (Table VII) ([4]; 37° C., 6 days): 4.70% | water content (Table VII) ([4]; 37° C., time 0): 5.02% | water content (Table VI) ([4]; 37° C., 49.2% RH, 2 h, hydrochloride monohydrate): 5.03 | water content (Table VI) ([4]; 37° C., 49.2% RH, 4 h, hydrochloride monohydrate): 5.04 | water content (Table VI) ([4]; 37° C., 49.2% RH, 6 h, hydrochloride monohydrate): 5.00 | water content (Table VI) ([4]; 37° C., 49.2% RH, 1 d, hydrochloride monohydrate): 5.00 | water content (Table VI) ([4]; 37° C., 49.2% RH, 4 d, hydrochloride monohydrate): 5.04 | water content (Table VI) ([4]; 37° C., 49.2% RH, 10 d, hydrochloride monohydrate): 4.95 | water content (Table VI) ([4]; 37° C., 49.2% RH, 30 d, hydrochloride monohydrate): 5.02 | water content (Table VI) ([4]; 37° C., 49.2% RH, time 0, hydrochloride monohydrate): 5.00 | water content (Table VI) ([4]; 37° C., 74.8% RH, 2 h, hydrochloride monohydrate): 5.05 | water content (Table VI) ([4]; 37° C., 74.8% RH, 4 h, hydrochloride monohydrate): 5.05 | water content (Table VI) ([4]; 37° C., 74.8% RH, 6 h, hydrochloride monohydrate): 5.07 | water content (Table VI) ([4]; 37° C., 74.8% RH, 1 d, hydrochloride monohydrate): 5.07 | water content (Table VI) ([4]; 37° C., 74.8% RH, 4 d, hydrochloride monohydrate): 5.07 | water content (Table VI) ([4]; 37° C., 74.8% RH, 10 d, hydrochloride monohydrate): 4.97 | water content (Table VI) ([4]; 37° C., 74.8% RH, 30 d, hydrochloride monohydrate): 5.00 | water content (Table VI) ([4]; 37° C., 74.8% RH, time 0, hydrochloride monohydrate): 5.00 | moisture absorption ([4]; different temperatures and relative humidity, in words, hydrochloride monohydrate): do not absorb moisture | stability in tablets and capsules [5]: better stability
